# According to patent publication US20210214758A1, “METHODS AND TOOLS FOR DETERMINING CLONAL RELATEDNESS AND PREDICTING CLONAL TRAITS” (priority 2018, published 2021):
# Tested on: Klebsiella isolates
# Test: Antibiotic susceptibility of Klebsiella clinical isolates per 7-SNP clonotype (Lookup Table 1; disk diffusion)
# Assay type: cell-based, Klebsiella spp.
# Conditions: CT 301
# Procedure: In further embodiments, the Lookup Table is Lookup Table 1. The information contained in Lookup Table 1 below was obtained from urine specimens from patients with Klebsiella infections from several clinics within different regions of the United States. CT=clonotypes determined using a 7-SNP combination: phoE54; rpoB130; infB279; mdh315; phoE336; phoE354; and mdh429.
# Next, antibiotic resistance was determined for all 387 Klebsiella isolates in the discovery set. Antibiotic testing was carried out according to the standard disk diffusion method as described in the Clinical and Laboratory Standards Institute (M100 Performance Standards for Antimicrobial Susceptibility Testing, 27th Edition, 2017). […] Since almost all Klebsiella isolates are known to be resistant to AMP and sensitive to IMI, TET is not used for treatment of urinary tract infections, and ESBL production is partially reflected in resistance to CTR, these antibiotics were not included for further analysis.
# To aid in clinical decision-making and to translate clonotype information to treatment selection, Lookup Table 1 was generated. […] The information contained in Lookup Table 1 was obtained from urine specimens from patients with Klebsiella infections from several clinics within different regions of the United States. Indications of allowance or non-recommendation were determined based on a 20% resistance threshold to the indicated antibiotic; i.e., the antibiotic is recommended when more than 80% of the tested isolates within the indicated clonotype were susceptible to the indicated antibiotic, and was cautioned against when less than 80% of the isolates were susceptible to the antibiotic.
row,SMILES,"susceptibility, % [%]"
1,"C[C@@H](O)[C@H]1C(=O)N2C(C(=O)O)=C(SCCN=CN)C[C@H]12 [IMI, imipenem]",100

# Same assay, conditions: CT 310
row,SMILES,"susceptibility, % [%]"
1,"C[C@@H](O)[C@H]1C(=O)N2C(C(=O)O)=C(SCCN=CN)C[C@H]12 [IMI, imipenem]",100

# Same assay, conditions: CT 311
row,SMILES,"susceptibility, % [%]"
1,"C[C@@H](O)[C@H]1C(=O)N2C(C(=O)O)=C(SCCN=CN)C[C@H]12 [IMI, imipenem]",100

# Same assay, conditions: CT 330
row,SMILES,"susceptibility, % [%]"
1,"C[C@@H](O)[C@H]1C(=O)N2C(C(=O)O)=C(SCCN=CN)C[C@H]12 [IMI, imipenem]",100

# Same assay, conditions: CT 331
row,SMILES,"susceptibility, % [%]"
1,"C[C@@H](O)[C@H]1C(=O)N2C(C(=O)O)=C(SCCN=CN)C[C@H]12 [IMI, imipenem]",100

# Same assay, conditions: CT 350
row,SMILES,"susceptibility, % [%]"
1,"C[C@@H](O)[C@H]1C(=O)N2C(C(=O)O)=C(SCCN=CN)C[C@H]12 [IMI, imipenem]",100

# Same assay, conditions: CT 351
row,SMILES,"susceptibility, % [%]"
1,"C[C@@H](O)[C@H]1C(=O)N2C(C(=O)O)=C(SCCN=CN)C[C@H]12 [IMI, imipenem]",100

# Same assay, conditions: CT 370
row,SMILES,"susceptibility, % [%]"
1,"C[C@@H](O)[C@H]1C(=O)N2C(C(=O)O)=C(SCCN=CN)C[C@H]12 [IMI, imipenem]",100

# Same assay, conditions: CT 371
row,SMILES,"susceptibility, % [%]"
1,"C[C@@H](O)[C@H]1C(=O)N2C(C(=O)O)=C(SCCN=CN)C[C@H]12 [IMI, imipenem]",100

# Same assay, conditions: CT 411
row,SMILES,"susceptibility, % [%]"
1,"C[C@@H](O)[C@H]1C(=O)N2C(C(=O)O)=C(SCCN=CN)C[C@H]12 [IMI, imipenem]",100

# Same assay, conditions: CT 450
row,SMILES,"susceptibility, % [%]"
1,"C[C@@H](O)[C@H]1C(=O)N2C(C(=O)O)=C(SCCN=CN)C[C@H]12 [IMI, imipenem]",100

# Same assay, conditions: CT 451
row,SMILES,"susceptibility, % [%]"
1,"C[C@@H](O)[C@H]1C(=O)N2C(C(=O)O)=C(SCCN=CN)C[C@H]12 [IMI, imipenem]",100

# Same assay, conditions: CT 510
row,SMILES,"susceptibility, % [%]"
1,"C[C@@H](O)[C@H]1C(=O)N2C(C(=O)O)=C(SCCN=CN)C[C@H]12 [IMI, imipenem]",100

# Same assay, conditions: CT 511
row,SMILES,"susceptibility, % [%]"
1,"C[C@@H](O)[C@H]1C(=O)N2C(C(=O)O)=C(SCCN=CN)C[C@H]12 [IMI, imipenem]",100

# Same assay, conditions: CT 530
row,SMILES,"susceptibility, % [%]"
1,"C[C@@H](O)[C@H]1C(=O)N2C(C(=O)O)=C(SCCN=CN)C[C@H]12 [IMI, imipenem]",100

# Same assay, conditions: CT 531
row,SMILES,"susceptibility, % [%]"
1,"C[C@@H](O)[C@H]1C(=O)N2C(C(=O)O)=C(SCCN=CN)C[C@H]12 [IMI, imipenem]",100

# Same assay, conditions: CT 550
row,SMILES,"susceptibility, % [%]"
1,"C[C@@H](O)[C@H]1C(=O)N2C(C(=O)O)=C(SCCN=CN)C[C@H]12 [IMI, imipenem]",98

# Same assay, conditions: CT 551
row,SMILES,"susceptibility, % [%]"
1,"C[C@@H](O)[C@H]1C(=O)N2C(C(=O)O)=C(SCCN=CN)C[C@H]12 [IMI, imipenem]",75

# Same assay, conditions: CT 570
row,SMILES,"susceptibility, % [%]"
1,"C[C@@H](O)[C@H]1C(=O)N2C(C(=O)O)=C(SCCN=CN)C[C@H]12 [IMI, imipenem]",100

# Same assay, conditions: CT 571
row,SMILES,"susceptibility, % [%]"
1,"C[C@@H](O)[C@H]1C(=O)N2C(C(=O)O)=C(SCCN=CN)C[C@H]12 [IMI, imipenem]",100

# Same assay, conditions: CT 611
row,SMILES,"susceptibility, % [%]"
1,"C[C@@H](O)[C@H]1C(=O)N2C(C(=O)O)=C(SCCN=CN)C[C@H]12 [IMI, imipenem]",100

# Same assay, conditions: CT 630
row,SMILES,"susceptibility, % [%]"
1,"C[C@@H](O)[C@H]1C(=O)N2C(C(=O)O)=C(SCCN=CN)C[C@H]12 [IMI, imipenem]",100

# Same assay, conditions: CT 650
row,SMILES,"susceptibility, % [%]"
1,"C[C@@H](O)[C@H]1C(=O)N2C(C(=O)O)=C(SCCN=CN)C[C@H]12 [IMI, imipenem]",100

# Same assay, conditions: CT 651
row,SMILES,"susceptibility, % [%]"
1,"C[C@@H](O)[C@H]1C(=O)N2C(C(=O)O)=C(SCCN=CN)C[C@H]12 [IMI, imipenem]",100

# Same assay, conditions: CT 670
row,SMILES,"susceptibility, % [%]"
1,"C[C@@H](O)[C@H]1C(=O)N2C(C(=O)O)=C(SCCN=CN)C[C@H]12 [IMI, imipenem]",100

# Same assay, conditions: CT 710
row,SMILES,"susceptibility, % [%]"
1,"C[C@@H](O)[C@H]1C(=O)N2C(C(=O)O)=C(SCCN=CN)C[C@H]12 [IMI, imipenem]",100

# Same assay, conditions: CT 730
row,SMILES,"susceptibility, % [%]"
1,"C[C@@H](O)[C@H]1C(=O)N2C(C(=O)O)=C(SCCN=CN)C[C@H]12 [IMI, imipenem]",98

# Same assay, conditions: CT 731
row,SMILES,"susceptibility, % [%]"
1,"C[C@@H](O)[C@H]1C(=O)N2C(C(=O)O)=C(SCCN=CN)C[C@H]12 [IMI, imipenem]",100

# Same assay, conditions: CT 750
row,SMILES,"susceptibility, % [%]"
1,"C[C@@H](O)[C@H]1C(=O)N2C(C(=O)O)=C(SCCN=CN)C[C@H]12 [IMI, imipenem]",100

# Same assay, conditions: CT 751
row,SMILES,"susceptibility, % [%]"
1,"C[C@@H](O)[C@H]1C(=O)N2C(C(=O)O)=C(SCCN=CN)C[C@H]12 [IMI, imipenem]",100

# Same assay, conditions: CT 771
row,SMILES,"susceptibility, % [%]"
1,"C[C@@H](O)[C@H]1C(=O)N2C(C(=O)O)=C(SCCN=CN)C[C@H]12 [IMI, imipenem]",100

# Same assay, conditions: CT Any Klebsiella spp.
row,SMILES,"susceptibility, % [%]"
1,"C[C@@H](O)[C@H]1C(=O)N2C(C(=O)O)=C(SCCN=CN)C[C@H]12 [IMI, imipenem]",99
